Laboratory results as given in article PMC7146544, “Dual Plasmepsin-Targeting Antimalarial Agents Disrupt Multiple Stages of the Malaria Parasite Life Cycle” (Cell Host & Microbe, 2020).
“Also recorded” adds a separate entry of the source.

How the values were obtained:
[1] = tested on: P. falciparum 3D7-PMIX-HA; experiment: EC50 in knock down parasite line 3D7-PMIX-HA; type: cell-based, Plasmodium falciparum; conditions: presence vs absence of 2.5 mM GlcN
[2] = tested on: P. falciparum; experiment: P. falciparum asexual blood-stage growth inhibition (LDH or SYBR Green flow cytometry); type: cell-based, Plasmodium falciparum; conditions: Plasmodium falciparum, 3D7, 3D7 parasite line, asexual blood stage; read-out: EC50, inhibition of P. falciparum growth
Procedure: For High Throughput Screening (HTS) of compounds we used the lactate dehydrogenase (LDH) assay to detect parasitemia ([Makler et al., 1993], [Oduola et al., 1997]) formatted in a 384 well assay using an Echo555 (Labcyte). The P. falciparum assay was conducted with minor modifications ([Gamo et al., 2010]). Briefly, an inoculum of parasitized red blood cells at 0.7% parasitemia and 2% hematocrit in RPMI-1640, 5% AlbuMAX, 2% d-sucrose, 0.3% glutamine and 150 μM hypoxanthine was used for the assay. Assay plates (Greiner #781098, 384 well, white, tissue culture treated) were prepared by dispensing 1 μl of compound from master plates at 20 μM (10% DMSO stock) into 9ul pre-dispensed growth media in each well. The parasite inoculum (30 μl) was dispensed into plates containing compounds using a Multidrop Combi dispenser (Thermo Scientific). Final assay volume was 40 μl and final compound concentration was 500 nM. The positive growth control was 0.25% DMSO and the negative growth control was 100 nM chloroquine. Plates were incubated at 37 °C for 72 h in an atmosphere of […]. Following 72 h growth, plates were sealed with parafilm and frozen at −80 °C overnight. Plates were thawed at room temperature for at least 4 h prior to LDH activity being measured. 45 μl of fresh LDH reaction mix (174 mM sodium l-lactate, 214 μM 3-acetyl pyridine adenine dinucleotide (APAD), 270 μM Nitro Blue tetrazolium chloride (NBT), 4.35 U ml-1 diaphorase, 0.7% Tween 20, 100 mM Tris-HCl pH 7.5) was dispensed into each well using a Multidrop Combi dispenser. Plates were shaken to ensure mixing and absorbance at 650 nm was measured in an EnVision (PerkinElmer) plate reader after 30 min of incubation at room temperature. Data were normalized to percent growth inhibition using positive and negative controls and analyzed using Dotmatics 5.3 and Spotfire 7.11.1 (Tibco) software.
All wells were backfilled with DMSO to 45 nL such that this remained constant (0.1% DMSO). The positive growth control was 0.1% DMSO and the negative growth control was 100 nM chloroquine. Parasite inoculum (40 μl) was dispensed into plates containing compounds as described above. All other culture and lactate dehydrogenase (LDH) reaction methods are as described previously ([Makler et al., 1993], [Oduola et al., 1997]).
After 72 h incubation at 37°C each well was fixed at room temperature for 30 min with 50 μL of 0.25% glutaraldehyde (ProSciTech) diluted in PBS. Following centrifugation at 1200 rpm for 1 min, supernatants were discarded and parasites were stained with 50 μL of 5X SYBR Green (Invitrogen) diluted in PBS. 50,000 cells were counted by flow cytometry using a Cell Lab Quanta SC – MPL Flow Cytometer (Beckman Coulter) ([Bacon et al., 2007]). Growth was expressed as a percentage of the parasitemia obtained using a vehicle control. All samples were tested in triplicate. EC50 values were determined using GraphPad Prism.

[3] = tested on: P. berghei liver stages; experiment: In vitro analysis of P. berghei liver parasites in HepG2 cells; type: cell-based, Plasmodium berghei; conditions: 100 nM from 24 hpi
Procedure: (§1) To infect cells, freshly isolated PbmCherryLuci salivary gland sporozoites were resuspended in complete medium and 10^4 sporozoites added to each well (MOI 0.34) before spinoculation at 500 x g for 3 min. Sporozoites were allowed to infect cells for 3 h before washing with complete medium. […] The compound containing medium was changed the next morning before 48 hpi to prevent removal of detached cells and merosomes in the supernatant at later time points ([Sturm et al., 2006]). To measure inhibition of parasitised cell detachment in the treated cultures, each well was imaged for mCherry at 20x magnification using an Opera Phenix High Content Screening System (PerkinElmer) at 48 hpi (live cell microscopy) and again at 65 hpi following fixation with 4% formalin in PBS, and the number of mCherry^+ parasites counted using the Columbus Image Data Storage and Analysis System (PerkinElmer). Cell detachment was calculated as the percent of parasites lost from the monolayer between 48 – 65 hpi. The culture supernatant containing merosomes and detached parasitised cells from each well was collected at 65 hpi, washed once in complete media by centrifugation at 500 x g for 3 min, then i.v. injected into individual male Swiss mice. Daily Giemsa stained thin blood smears were monitored for patent blood infection as described previously.
Following fixation at 65 hpi, infected hepatocyte monolayers were blocked and permeabilized in PBS containing 1% BSA and 0.1% Triton X-100 (blocking buffer) for 1 h before incubation with polyclonal Goat-anti-PbUIS4 (1:500) and Rabbit-anti-PyMSP1_19 antiserum (1:200) for 1 h. After 3 washes in PBS to remove primary antibodies, wells were incubated sequentially with secondary antibodies recognizing Goat IgG (Alexa Fluor 488; 1:500) and then Rabbit IgG (Alexa Fluor 633; 1:500) for 1 h, separated by 3 washes with PBS. All antibody incubations were performed in blocking buffer at room temperature protected from light, and 2 μg/mL DAPI was added to the last incubation with secondary antibody to stain DNA. The center of each well was then imaged across a 12 μm z stack at 63x magnification using an Opera Phenix (PerkinElmer) for the above fluorochromes as well as mCherry to reveal parasite cytoplasm. Data was transferred to Columbus (PerkinElmer) and at least 70 parasites per condition were then manually scored based on a previously described staging system ([Graewe et al., 2011]). […] More extensive membrane invaginations surrounding individual nuclei with well segmented parasite cytoplasm and intact UIS4 staining were scored as ‘merozoite’ stage. ‘Egressed’ parasites were classified as either well segmented merozoite stages with evidence for PVM breakdown, or largely intact PVM vacuoles in which significant loss of parasite material was evident (Figure S6).

[4] = tested on: P. berghei; experiment: Merosome transfer from treated HepG2 cultures to mice; type: in vivo, Plasmodium berghei; conditions: HepG2 cultures treated with 1 nM, washed
Procedure: as §1

[5] = tested on: P. falciparum; experiment: P. falciparum humanized NOD-scid IL2R_null mouse model
Procedure: Compounds were tested in the murine P. falciparum SCID model ([Angulo-Barturen et al., 2008]). […] The mice were intravenously infected with 2 × 10^7 P. falciparum Pf3D7-infected erythrocytes (day 0) ([Angulo-Barturen et al., 2008]). On day 3 after infection, mice were randomly allocated to treatments that were administered once a day for 4 consecutive days (n = 3 mice) by oral gavage at 10 mL/kg. Parasitemia was measured by microscopy. Chimerism was monitored by flow cytometry using anti-murine erythrocyte TER119 monoclonal antibody (PharMingen, San Diego, CA) and SYTO-16 and then analyzed by flow cytometry in serial 2 μL blood samples taken every 24 h until assay completion.

SMILES	change of EC50 when PMIX expression was decreased [1]	EC50 [2] [nM]	detachment of parasitized HepG2 cells at 65 hpi [3]	egress of exoerythrocytic merozoites from hepatocytes in vitro [3]	liver parasite size and maturity at 65 hpi [3]	merozoite formation by liver stages [3]	liver parasite number or size at 48 hpi ([3]; HepG2 cells)	blood infection of naive mice after i.v. injection of 65 hpi supernatants [4]	day by which mice were cleared of parasitemia ([5]; WM382 3 mpk oral q.d. 4 days from day 3) [days]	day by which mice were cleared of parasitemia ([5]; WM382 10 mpk oral q.d. 4 days from day 3) [days]	day by which mice were cleared of parasitemia ([5]; WM382 30 mpk oral q.d. 4 days from day 3) [days]	efficacy against P. falciparum including parasitemia clearance rate, compared with chloroquine ([5]; in vivo and in vitro)
CC(NC(=O)c1cccc(C(c2ccccc2)N2C(=N)NC(C)(C(C)C)CC2=O)c1)c1ccccc1 (racemic) [WM4]	no significant change	–	–	–	–	–	–	–	–	–	–	–
CCC1(CC)CC(=O)N([C@@H]2CCOc3ccc(C(=O)N[C@H]4CC(C)(C)Oc5ccccc54)cc32)C(=N)N1 [WM382]	significantly more sensitive	0.6	decrease in detachment; also recorded: reduced detachment of parasitized HepG2 cells	incomplete inhibitory effect; also recorded: reduced rates	increased size of parasites; also recorded: accumulation of larger, mature liver parasites containing merozoites without PVM degradation	normal	did not reduce parasite number or size	Blood infection was initiated in mice	≤ 7	≤ 7	≤ 6	at least equivalent to chloroquine
